The results in this text go back to US11840528B2 (Hoffmann-La Roche Inc., priority 2018, dated 2023).

What is called Ki is a measure of affinity in units of concentration, obtained from inhibition or displacement.

Experiment [1] concerns the target T1, h-GABA-A α5β3γ2 (Homo sapiens, UniProt P18507+P31644). The experiment can be described thus: [3H]flumazenil competition binding assay, membranes of HEK293 cells expressing GABAA receptors. As to conditions: displacement of [3H]-Flumazenil 0.5 nM, HEK293 cells expressing human receptors, mean of two determinations; Table 1. The gist of the method: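 Membranes from HEK293 cells transiently expressing human α5β3γ2 GABAA receptors, in Krebs-tris buffer pH 7.5, competed against [3H]flumazenil for 1 hour at 4° C to equilibrium. Bound radioactivity collected on GF/C filters and counted by liquid scintillation; Ki values are means of two determinations.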
For orientation: Displacement assays read how much labelled ligand stays bound in the presence of the test substance.

Experiment [2] addresses T1, h-GABA-A α5β3γ2. Put plainly: Two-electrode voltage clamp electrophysiology in Xenopus laevis oocytes expressing GABAA receptors, modulation of GABA EC20 current. The format is cell-based. More on the design: host or cells: Xenopus laevis oocytes micro-injected with RNA transcripts of the subunits. As to conditions: Table 1; for Efficacy (GABA) %: % modulation of GABA EC20 = 100*(Fold increase-1); for Fold increase h-GABA-A α5β3γ2 oocyte: test compound at approx. 30 fold its Ki, GABA at EC20. Put shortly: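 Human α5β3γ2 GABAA receptors were expressed in Xenopus oocytes by RNA injection, with γ2 RNA 5–10-fold higher, and recorded 3–5 days later by two-electrode voltage clamp at −80 mV at room temperature. The test compound, at about 30× its Ki, was co-applied during a second GABA EC20 pulse. Efficacy is the extremum of the point-by-point ratio to the first response, expressed as 100*(Fold increase−1).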
Background: In two-electrode clamp one electrode senses voltage and the other passes current.

The compound `COC1CN(c2cnn(Cc3c(-c4ncc(C(F)(F)F)cn4)noc3C)c(=O)c2)C1` [Example 229, 5-(3-methoxyazetidin-1-yl)-2-((5-methyl-3-(5-(trifluoromethyl)pyrimidin-2-yl)isoxazol-4-yl)methyl)pyridazin-3(2H)-one] had an inhibition constant Ki on h-GABA-A α5β3γ2 [1] of 10 nM. Moreover, on h-GABA-A α5β3γ2 [2], the “Efficacy (GABA) %” value stood at 81% and the “Fold increase h-GABA-A α5β3γ2 oocyte” value was determined as 1.81.

With `Cc1onc(-c2ccc(Cl)nc2)c1Cn1ncc(N2CC3(C[C@@H](F)CO3)C2)cc1=O` [Example 230, (R)-2-((3-(6-chloropyridin-3-yl)-5-methylisoxazol-4-yl)methyl)-5-(7-fluoro-5-oxa-2-azaspiro[3.4]octan-2-yl)pyridazin-3(2H)-one], the affinity at h-GABA-A α5β3γ2 [1] corresponds to a Ki of 45.1 nM. Also, at h-GABA-A α5β3γ2 [2], the “Efficacy (GABA) %” value came out at 127% and the “Fold increase h-GABA-A α5β3γ2 oocyte” value is 2.27.

The compound `Cc1onc(-c2ccc(Cl)nc2)c1Cn1ncc(N2CC3(C[C@H](F)CO3)C2)cc1=O` [Example 232, (S)-2-((3-(6-chloropyridin-3-yl)-5-methylisoxazol-4-yl)methyl)-5-(7-fluoro-5-oxa-2-azaspiro[3.4]octan-2-yl)pyridazin-3(2H)-one] gave a Ki on h-GABA-A α5β3γ2 [1] of 37 nM. On h-GABA-A α5β3γ2 [2], the “Efficacy (GABA) %” value is listed as 104% and the “Fold increase h-GABA-A α5β3γ2 oocyte” value worked out at 2.04.

As to `Cc1onc(-c2ccc(Cl)nc2)c1Cn1ncc(N2CC3(CCCCO3)C2)cc1=O` [Example 233, 2-((3-(6-chloropyridin-3-yl)-5-methylisoxazol-4-yl)methyl)-5-(5-oxa-2-azaspiro[3.5]nonan-2-yl)pyridazin-3(2H)-one], at h-GABA-A α5β3γ2 [1], the Ki is 33.6 nM. In addition, at h-GABA-A α5β3γ2 [2], the “Efficacy (GABA) %” value turned out to be 82% and the “Fold increase h-GABA-A α5β3γ2 oocyte” value was found to be 1.82.

`Cc1ccc(-c2noc(C)c2Cn2ncc(N3CC(OC(C)(C)C)C3)cc2=O)nn1` [Example 234, 5-(3-(tert-butoxy)azetidin-1-yl)-2-((5-methyl-3-(6-methylpyridazin-3-yl)isoxazol-4-yl)methyl)pyridazin-3(2H)-one] displayed an inhibitory constant (Ki) on h-GABA-A α5β3γ2 [1] of 4.4 nM. Besides, on h-GABA-A α5β3γ2 [2], the “Efficacy (GABA) %” value is given as 93% and the “Fold increase h-GABA-A α5β3γ2 oocyte” value stood at 1.93.

In turn, `Cc1ccc(-c2noc(C)c2Cn2ncc(N3CC4(CCCCO4)C3)cc2=O)nn1` [Example 235, 2-((5-methyl-3-(6-methylpyridazin-3-yl)isoxazol-4-yl)methyl)-5-(5-oxa-2-azaspiro[3.5]nonan-2-yl)pyridazin-3(2H)-one] yielded an inhibition constant (Ki) on h-GABA-A α5β3γ2 [1] of 2.8 nM. Further, on h-GABA-A α5β3γ2 [2], the “Efficacy (GABA) %” value was determined as 77% and the “Fold increase h-GABA-A α5β3γ2 oocyte” value is given as 1.77.

`Cc1ccc(-c2noc(C)c2Cn2ncc(N3CC(Oc4ccnc(Cl)c4)C3)cc2=O)nn1` [Example 236, 5-[3-[(2-chloro-4-pyridyl)oxy]azetidin-1-yl]-2-[[5-methyl-3-(6-methylpyridazin-3-yl)isoxazol-4-yl]methyl]pyridazin-3-one]: the affinity on h-GABA-A α5β3γ2 [1], expressed as Ki, was 2.9 nM. Besides, on h-GABA-A α5β3γ2 [2], the “Efficacy (GABA) %” value is listed as 136% and the “Fold increase h-GABA-A α5β3γ2 oocyte” value is reported as 2.36.

On h-GABA-A α5β3γ2 [1], `CO[C@H]1COC2(C1)CN(c1cnn(Cc3c(-c4ccc(C(F)(F)F)nc4)noc3C)c(=O)c1)C2` [Example 237, 5-[(7R)-7-methoxy-5-oxa-2-azaspiro[3.4]octan-2-yl]-2-[[5-methyl-3-[6-(trifluoromethyl)-3-pyridyl]isoxazol-4-yl]methyl]pyridazin-3-one] returned a Ki of 5.8 nM. Besides, at h-GABA-A α5β3γ2 [2], the “Efficacy (GABA) %” value is 147% and the “Fold increase h-GABA-A α5β3γ2 oocyte” value amounted to 2.47.

With `Cc1ccc(-c2noc(C)c2Cn2ncc(N3CC(OC4CCC4)C3)cc2=O)nn1` [Example 238, 5-[3-(cyclobutoxy)azetidin-1-yl]-2-[[5-methyl-3-(6-methylpyridazin-3-yl)isoxazol-4-yl]methyl]pyridazin-3-one], the affinity on h-GABA-A α5β3γ2 [1] corresponds to a Ki of 6.8 nM. Also, at h-GABA-A α5β3γ2 [2], the “Efficacy (GABA) %” value was found to be 128% and the “Fold increase h-GABA-A α5β3γ2 oocyte” value came out at 2.28.

On h-GABA-A α5β3γ2 [1], `Cc1ccc(-c2noc(C)c2Cn2ncc(N3CC(OC4CC4)C3)cc2=O)nn1` [Example 239, 5-[3-(cyclopropoxy)azetidin-1-yl]-2-[[5-methyl-3-(6-methylpyridazin-3-yl)isoxazol-4-yl]methyl]pyridazin-3-one] had an inhibitory constant (Ki) of 1 nM. Further, on h-GABA-A α5β3γ2 [2], the “Efficacy (GABA) %” value is on record as 67% and the “Fold increase h-GABA-A α5β3γ2 oocyte” value was found to be 1.67.

The compound `Cc1ccc(-c2noc(C)c2Cn2ncc(N3CC4(C[C@@H](OC(F)F)CO4)C3)cc2=O)nn1` [Example 242, 5-[(7R)-7-(difluoromethoxy)-5-oxa-2-azaspiro[3.4]octan-2-yl]-2-[[5-methyl-3-(6-methylpyridazin-3-yl)isoxazol-4-yl]methyl]pyridazin-3-one] displayed a Ki on h-GABA-A α5β3γ2 [1] of 3 nM. At h-GABA-A α5β3γ2 [2], the “Efficacy (GABA) %” value was 80% and the “Fold increase h-GABA-A α5β3γ2 oocyte” value was 1.8.

`Cc1ccc(-c2noc(CF)c2Cn2ncc(N3C[C@@H](C)O[C@@H](C)C3)cc2=O)cn1` [Example 243, 5-((2S,6R)-2,6-dimethylmorpholin-4-yl)-2-((5-(fluoromethyl)-3-(6-methylpyridin-3-yl)-1,2-oxazol-4-yl)methyl)pyridazin-3-one] displayed a Ki at h-GABA-A α5β3γ2 [1] of 4.6 nM. For the same compound, at h-GABA-A α5β3γ2 [2], the “Efficacy (GABA) %” value came to 173% and the “Fold increase h-GABA-A α5β3γ2 oocyte” value is 2.73.

Turning to `Cc1onc(-c2ccc(C(F)(F)F)nc2)c1Cn1ncc(N2CC(OCC(F)F)C2)cc1=O` [Example 244, 5-[3-(2,2-difluoroethoxy)azetidin-1-yl]-2-[[5-methyl-3-[6-(trifluoromethyl)-3-pyridyl]isoxazol-4-yl]methyl]pyridazin-3-one], the affinity at h-GABA-A α5β3γ2 [1] corresponds to a Ki of 38.8 nM. On h-GABA-A α5β3γ2 [2], the “Efficacy (GABA) %” value is recorded as 140% and the “Fold increase h-GABA-A α5β3γ2 oocyte” value is given as 2.4.

Take `Cc1onc(-c2ccc(Cl)nc2)c1Cn1ncc(N2CC(OCC(F)F)C2)cc1=O` [Example 245, 2-((3-(6-chloropyridin-3-yl)-5-methylisoxazol-4-yl)methyl)-5-(3-(2,2-difluoroethoxy)azetidin-1-yl)pyridazin-3(2H)-one]: at h-GABA-A α5β3γ2 [1], the affinity, expressed as Ki, was 18.7 nM. Besides, on h-GABA-A α5β3γ2 [2], the “Efficacy (GABA) %” value amounted to 106% and the “Fold increase h-GABA-A α5β3γ2 oocyte” value is 2.06.

`Cc1ccc(-c2noc(C)c2Cn2ncc(N3CC4(C[C@H](OC(F)F)CO4)C3)cc2=O)nn1` [Example 246, 5-[(7S)-7-(difluoromethoxy)-5-oxa-2-azaspiro[3.4]octan-2-yl]-2-[[5-methyl-3-(6-methylpyridazin-3-yl)isoxazol-4-yl]methyl]pyridazin-3-one]: at h-GABA-A α5β3γ2 [1], the affinity, expressed as Ki, was 3.4 nM. Further, at h-GABA-A α5β3γ2 [2], the “Efficacy (GABA) %” value stood at 130% and the “Fold increase h-GABA-A α5β3γ2 oocyte” value worked out at 2.3.

As for `Cc1ccc(-c2noc(C)c2Cn2ncc(N3CCC4(CCOCC4)CC3)cc2=O)nn1` [Example 247, 2-[[5-methyl-3-(6-methylpyridazin-3-yl)isoxazol-4-yl]methyl]-5-(3-oxa-9-azaspiro[5.5]undecan-9-yl)pyridazin-3-one], on h-GABA-A α5β3γ2 [1], the inhibitory constant (Ki) was 2.8 nM. Besides, on h-GABA-A α5β3γ2 [2], the “Efficacy (GABA) %” value is reported as 94% and the “Fold increase h-GABA-A α5β3γ2 oocyte” value is listed as 1.94.

In turn, `Cc1onc(-c2ccc(Cl)nc2)c1Cn1ncc(N2CCC3(CCOCC3)CC2)cc1=O` [Example 248, 2-((3-(6-chloropyridin-3-yl)-5-methylisoxazol-4-yl)methyl)-5-(3-oxa-9-azaspiro[5.5]undecan-9-yl)pyridazin-3(2H)-one] registered a Ki at h-GABA-A α5β3γ2 [1] of 24.6 nM. Moreover, on h-GABA-A α5β3γ2 [2], the “Efficacy (GABA) %” value is 107% and the “Fold increase h-GABA-A α5β3γ2 oocyte” value is 2.07.

`Cc1onc(-c2ncc(C(F)(F)F)cn2)c1Cn1ncc(N2CC(OC3CC3)C2)cc1=O` [Example 249, 5-(3-cyclopropoxyazetidin-1-yl)-2-((5-methyl-3-(5-(trifluoromethyl)pyrimidin-2-yl)isoxazol-4-yl)methyl)pyridazin-3(2H)-one]: the Ki at h-GABA-A α5β3γ2 [1] was 2.2 nM. Also, at h-GABA-A α5β3γ2 [2], the “Efficacy (GABA) %” value worked out at 60% and the “Fold increase h-GABA-A α5β3γ2 oocyte” value worked out at 1.6.

Take `Cc1onc(-c2ncc(C(F)(F)F)cn2)c1Cn1ncc(N2CC3(C2)CC(F)(F)CO3)cc1=O` [Example 250, 5-(7,7-difluoro-5-oxa-2-azaspiro[3.4]octan-2-yl)-2-((5-methyl-3-(5-(trifluoromethyl)pyrimidin-2-yl)isoxazol-4-yl)methyl)pyridazin-3(2H)-one]: the affinity on h-GABA-A α5β3γ2 [1] corresponds to a Ki of 3.3 nM. Further, on h-GABA-A α5β3γ2 [2], the “Efficacy (GABA) %” value was 46% and the “Fold increase h-GABA-A α5β3γ2 oocyte” value was 1.46.

Consider `Cc1onc(-c2ccc(Cl)nc2)c1Cn1ncc(N2CC(OC(F)(F)F)C2)cc1=O` [Example 251, 2-((3-(6-chloropyridin-3-yl)-5-methylisoxazol-4-yl)methyl)-5-(3-(trifluoromethoxy)azetidin-1-yl)pyridazin-3(2H)-one], for which, on h-GABA-A α5β3γ2 [1], affinity was put at a Ki of 16.6 nM. At h-GABA-A α5β3γ2 [2], the “Efficacy (GABA) %” value is recorded as 83% and the “Fold increase h-GABA-A α5β3γ2 oocyte” value is 1.83.

As for `COC1CN(c2cnn(Cc3c(-c4ccc(Cl)nn4)noc3C)c(=O)c2)C1` [Example 252, 2-((3-(6-chloropyridazin-3-yl)-5-methylisoxazol-4-yl)methyl)-5-(3-methoxyazetidin-1-yl)pyridazin-3(2H)-one], on h-GABA-A α5β3γ2 [1], the inhibitory constant (Ki) stood at 4.2 nM. For the same compound, at h-GABA-A α5β3γ2 [2], the “Efficacy (GABA) %” value stood at 86% and the “Fold increase h-GABA-A α5β3γ2 oocyte” value amounted to 1.86.

The compound `Cc1onc(-c2ccc(Cl)nc2)c1Cn1ncc(N2CC(OC3CCC3)C2)cc1=O` [Example 253, 2-((3-(6-chloropyridin-3-yl)-5-methylisoxazol-4-yl)methyl)-5-(3-cyclobutoxyazetidin-1-yl)pyridazin-3(2H)-one] came in with a Ki at h-GABA-A α5β3γ2 [1] of 31 nM. On h-GABA-A α5β3γ2 [2], the “Efficacy (GABA) %” value is 156% and the “Fold increase h-GABA-A α5β3γ2 oocyte” value worked out at 2.56.
